Assay results taken from US5399565A, “Pyrazolidinone CCK and gastrin antagonists and pharmaceutical formulations therof” (priority 1993, dated 1995).

Experiments:
[1] = target: T1, brain CCK receptor (Mus musculus, UniProt P56481); experiment: CCK receptor binding, mouse brain membranes (125I-CCK-8 sulfate); settings: for IC50: mouse brain membranes, read-out: Brain IC50; for inhibition at 10 µM / inhibition at 1 µM: read-out: Brain Percent Inhibition
T1 construct: from tissue; host or cells: forebrain membranes of male CF-1 mice
T1 sequence (P56481 1-453): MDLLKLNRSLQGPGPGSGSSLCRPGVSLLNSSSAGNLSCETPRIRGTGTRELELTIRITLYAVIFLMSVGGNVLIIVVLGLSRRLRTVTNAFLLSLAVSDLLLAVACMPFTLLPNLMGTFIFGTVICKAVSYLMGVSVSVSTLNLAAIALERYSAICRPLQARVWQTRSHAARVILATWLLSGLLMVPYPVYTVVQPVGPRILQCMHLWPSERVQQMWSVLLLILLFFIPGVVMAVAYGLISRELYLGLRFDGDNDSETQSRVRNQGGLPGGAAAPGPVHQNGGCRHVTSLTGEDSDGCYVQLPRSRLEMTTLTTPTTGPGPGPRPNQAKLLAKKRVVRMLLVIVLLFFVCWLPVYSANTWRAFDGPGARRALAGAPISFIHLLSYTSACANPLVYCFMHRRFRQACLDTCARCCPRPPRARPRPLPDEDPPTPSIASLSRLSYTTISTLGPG
Experimental: Brain CCK receptor binding was performed using mouse brain membranes according to the method of Chang and Lotti (Proc. Natl. Acad. Sci. 83: 4923-4926, 1986). Male CF-1 mice, 23-25 g were sacrificed by cervical dislocation, the forebrain removed and placed in ice cold 50 mM Tris buffer, pH 7.4. The tissue was homogenized in 100 volumes of the Tris buffer with a Brinkman Polytron or Tekmar Tissumizer and then centrifuged at 40,000 g for 10 min. Pellets were resuspended in Tris buffer, centrifuged as above and then resuspended in 100 volumes of assay buffer, pH 6.5 (20 mM N-2-hydroxyethyl-piperazine-N'-2-ethane sulfonic acid (HEPES), 1 mM ethylene glycol his (2-aminoethyl ether-N,N,N',N'-tetraacetic acid) (EGTA), 5 mM MgCl2, 130 mM NaCl, and 0.25 mg/ml bacitracin). The binding assay consisted of 50 μL of compound (or buffer for total binding), 50 μL of ^125 I-CCK-8 sulfate (20 pM) (Amersham IM- 159), 200 μL of assay buffer and 200 μL of homogenate (80-120 μg protein). The samples were incubated at room temperature (25°) for 2 hours, and they were then filtered through GF/B glass fiber filters (soaked in wash buffer for 2 hours before use) using a 48 well Brandel cell harvester designed for receptor binding. The filters were washed twice with 3 ml of 50 mM Tris buffer, pH 7.4, containing 0.01% BSA and then counted for radioactivity in plastic tubes with a Micromedic 10/600 automatic gamma counter.
Compounds were dissolved in dimethyl sulfoxide (DMSO) at a concentration of 10 mM and then further diluted with assay buffer. The concentration of DMSO in the incubation was 0.1% or less and had no effect on the assay at that level. IC-50 values of displacement curves were determined using 7 concentrations of compound and were calculated using the ALLFIT computer program of DeLean, Munson and Rodbard (Am. J. Physiol. 235: E97-E102, 1978). Non-specific binding was determined as the displacement of the radioligand by 100 nM CCK-8 sulfate.

[2] = target: T2, peripheral type CCK receptors in rat pancreas (Rattus norvegicus, UniProt P30551); experiment: Binding to peripheral type CCK receptors in rat pancreas (3H-L-364,718); settings: for IC50: rat pancreas
T2 construct: Pancreas was obtained from male Sprague-Dawley rats; from tissue; host or cells: pancreas membranes of male Sprague-Dawley rats
T2 sequence (P30551 1-444): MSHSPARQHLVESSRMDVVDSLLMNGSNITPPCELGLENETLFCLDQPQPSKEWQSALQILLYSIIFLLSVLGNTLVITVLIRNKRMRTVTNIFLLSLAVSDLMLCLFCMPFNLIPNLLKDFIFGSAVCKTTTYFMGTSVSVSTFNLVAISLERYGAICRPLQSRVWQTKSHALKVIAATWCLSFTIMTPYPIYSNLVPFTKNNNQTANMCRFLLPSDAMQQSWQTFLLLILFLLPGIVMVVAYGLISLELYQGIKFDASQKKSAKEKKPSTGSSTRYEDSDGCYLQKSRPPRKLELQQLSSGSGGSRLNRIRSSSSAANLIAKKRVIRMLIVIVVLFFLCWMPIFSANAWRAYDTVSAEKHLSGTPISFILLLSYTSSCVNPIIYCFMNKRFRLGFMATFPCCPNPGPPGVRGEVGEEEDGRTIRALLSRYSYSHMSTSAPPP
Experimental: Binding to peripheral type CCK receptors in rat pancreas was done according to the method of Chang et al. (Mol. Pharmacol. 30: 212-217, 1986) using ^3 H-L364, 718. Pancreas was obtained from male Sprague-Dawley rats, 150-200 g, after decapitation, and dissected free from adipose and connective tissue. The tissue was homogenized in 30 volumes of 50 mM Tris buffer, pH 7.4 and centrifuged at 40,000 g for 10 min. The tissue pellet was washed by resuspension and centrifugation as described above. The final pellet was suspended in 500 volumes of assay buffer (50 mM Tris buffer, pH 7.4, 5 mM MgCl2, 0.14 mg/ml bacitracin, and 5 mM dithiothreitol) to give a protein concentration of 30-60 μg/200 μl . Reagent volumes for the assay were the same as those used for CCK binding to brain membranes. Tritium labeled L-364,718 (Dupont NEN, NET-971) was used as the ligand at a concentration of 0.4-0.6 nM. The samples were incubated 1 hour at room temperature and then filtered as described for the CCK-brain receptor. Scintillation cocktail was added to the filters which were counted for radioactivity using a Micromedic Taurus automatic liquid scintillation counter.
Compound samples were prepared and IC-50 values were determined as described for the CCK-brain experiments. Non-specific binding was that amount left bound to the filters after adding 100 nM L-364,718.

[3] = read-out: Pancreas Percent Inhibition

| IC50 [1] [nM] | inhibition at 10 µM [2, 3] [%] | inhibition at 10 µM [1] [%] | Compound | further results |
| --- | --- | --- | --- | --- |
| 6000 | 11 |  | O=C1NN(C(=O)N2CCc3ccccc3C2)[C@@H](c2ccccc2)[C@@H]1c1ccccc1 (relative stereo) [Example 109] |  |
|  | 21 | 34 | O=C1NN(C(=O)Nc2ccncc2)[C@@H](c2ccccc2)[C@@H]1c1ccccc1 (relative stereo) [Example 89] |  |
|  | 21 |  | CN(C)c1ccc(C2C(c3ccccc3)C(=O)NN2C(=O)Nc2ccc(C(F)(F)F)cc2)cc1 (stereo not drawn) [Example 113] | inhibition at 1 µM [1]: 25% |
|  | 63 |  | O=C1NN(C(=O)Nc2cccc3ccccc23)[C@@H](c2ccccc2)[C@@H]1c1ccccc1 (relative stereo) [Example 90] | inhibition at 1 µM [1]: 45% |
|  | 36 |  | CCCCC1C(c2ccccc2)C(=O)NN1C(=O)Nc1cccc(C(F)(F)F)c1 (stereo not drawn) [Example 70] | inhibition at 1 µM [1]: 13% |
|  | 9 | 43 | O=C1NN(C(=O)Oc2ccccc2)[C@@H](c2ccccc2)[C@@H]1c1ccccc1 (relative stereo) [Example 79] |  |
| 370 |  |  | O=C1NN(C(=O)Nc2ccc(Br)cc2)[C@@H](c2ccccc2)[C@@H]1c1ccccc1 (single isomer, unassigned) [Example 140, (-)-trans-1-[(4-Bromophenyl)aminocarbonyl]-4,5-diphenyl-3-pyrazolidinone] |  |
|  |  | 50 | CCCCNC(=O)N1NC(=O)[C@H](c2ccccc2)[C@H]1c1ccccc1 (relative stereo) [Example 94] |  |
|  |  | 23 | O=C(Nc1cccc(C(F)(F)F)c1)N1N[C@@H](c2ccccc2)[C@H](c2ccccc2)C1=O (relative stereo) [Example 82] |  |
|  | 58 |  | O=C1NN(c2nc3c(Cl)c(Cl)ccc3s2)[C@@H](c2ccccc2)[C@@H]1c1ccccc1 (relative stereo) [Example 86] |  |
|  |  | 42 | CN(Cc1ccccc1)C(=O)N1NC(=O)[C@@H](c2ccccc2)[C@@H]1c1ccccc1 (relative stereo) [Example 97] |  |
|  | 94 |  | O=C1NN(C(=O)Nc2ccc3ccccc3c2)[C@@H](c2ccccc2)[C@@H]1c1ccccc1 (relative stereo) [Example 91] |  |

Further lines, the compound ahead of its results:

| Compound | IC50 [1] [nM] | inhibition at 10 µM [2, 3] [%] | inhibition at 10 µM [1] [%] | further results |
| --- | --- | --- | --- | --- |
| O=C1NN(C(=S)Nc2cccc(Cl)c2Cl)[C@H](c2ccccc2)[C@H]1c1ccccc1 (relative stereo) [Example 64] | 5300 |  |  | inhibition at 1 µM ([2]; at 1 μM, read-out: Pancreas Percent Inhibition): 34% |
| O=C1NN(C(=O)Nc2ccccc2C(F)(F)F)[C@H](c2ccccc2)[C@H]1c1ccccc1 (relative stereo) [Example 53] | 1200 | 17 |  |  |
| O=C1NN(C(=S)Nc2cnc3ccccc3c2)[C@@H](c2ccccc2)[C@@H]1c1ccccc1 (relative stereo) [Example 137] |  |  |  | IC50 [2]: 32 nM |
| CN(C(=O)N1NC(=O)[C@@H](c2ccccc2)[C@@H]1c1ccccc1)c1ccc(Cl)cc1 (relative stereo) [Example 19] |  | 36 | 68 |  |
| CN1C(=O)[C@H](c2ccccc2)[C@@H](c2ccccc2)N1C(=O)Nc1ccc(C(F)(F)F)cc1 (relative stereo) [Example 67] |  |  | 46 |  |
| O=C1NN(C(=O)Nc2ccc3c(c2)OCO3)[C@H](c2ccccc2)[C@H]1c1ccccc1 (relative stereo) [Example 52] |  | 21 |  | inhibition at 1 µM [1]: 60% |
| O=C1NN(C(=O)Nc2ccc(F)c(Cl)c2)[C@H](c2ccccc2)[C@H]1c1ccccc1 (relative stereo) [Example 47] | 390 | 51 |  |  |
| O=C(O)CN1C(=O)[C@@H](c2ccccc2)[C@H](c2ccccc2)N1C(=O)Nc1ccc(Br)cc1 (relative stereo) [Example 12 (N--), 1-[(4-Bromophenyl)aminocarbonyl]-2-carboxymethyl-4,5-diphenyl-3-pyrazolidinone] | 1900 | 55 |  |  |
| CCOc1ccc(NC(=O)N2NC(=O)[C@@H](c3ccccc3)[C@@H]2c2ccccc2)cc1 (relative stereo) [Example 34] | 1500 | 12 |  |  |
| COc1ccc(NC(=O)N2NC(=O)[C@@H](c3ccccc3)[C@@H]2c2ccccc2)cc1 (relative stereo) [Example 33] | 340 | 20 |  |  |
| O=C1NN(C(=S)Nc2ccccc2)[C@H](c2ccccc2)[C@H]1c1ccccc1 (relative stereo) [Example 60] |  | 37 | 34 |  |
| CC(C)Oc1cccc(NC(=O)N2NC(=O)[C@H](c3ccccc3)[C@H]2c2ccccc2)c1 (relative stereo) [Example 43] | 230 | 24 |  |  |
| O=C1NN(C(=O)Nc2cccc(C(F)(F)F)c2)[C@@H](c2ccccc2)[C@@H]1c1ccccc1 (relative stereo) [Example 39] | 330 | 52 |  |  |
| O=C(O)COC1=NN(C(=O)Nc2ccc(Br)cc2)[C@@H](c2ccccc2)[C@@H]1c1ccccc1 (relative stereo) [Example 12 (O--), 1-[(4-bromophenyl)aminocarbonyl]-3-carboxymethoxy-4,5-diphenyl-2-pyrazoline] | 340 | 64 |  |  |
| O=C1NN(C(=S)Nc2ccc(Cl)c(C(F)(F)F)c2)[C@@H](c2ccccc2)[C@@H]1c1ccccc1 (single isomer, unassigned) [Example 142, (+)-trans-1-[(4-Chloro-3-trifluoromethylphenyl)-aminothiocarbonyl]-4,5-diphenyl-3-pyrazolidinone] |  |  |  | IC50 [2]: 17 nM |
| O=C1NN(C(=S)NCc2ccc(Cl)c(Cl)c2)[C@@H](c2ccccc2)[C@@H]1c1ccccc1 (relative stereo) [Example 138] |  |  |  | IC50 [2]: 69 nM |
| COC1=NN(C(=O)Nc2ccc(C(F)(F)F)cc2)[C@@H](c2ccccc2)[C@@H]1c1ccccc1 (relative stereo) [Example 13, 1-[(4-Trifluoromethylphenyl)aminocarbonyl]-3-methoxy-4,5diphenyl-2-pyrazoline] |  |  | 67 |  |
| O=C1NN(C(=S)Nc2ccc(Cl)c(C(F)(F)F)c2)[C@@H](c2ccccc2)[C@@H]1c1ccccc1 (single isomer, unassigned) [Example 143, (-)-trans-1-[(4-Chloro-3-trifluoromethylphenyl)-aminothiocarbonyl]-4,5-diphenyl-3-pyrazolidinone] |  |  |  | IC50 [2]: 810 nM |
